This is an account of results in patent US9675605B2, “Substituted naphthyridine and quinoline compounds as MAO inhibitors” (DART NEUROSCIENCE (CAYMAN) LTD., priority 2013, dated 2017).

Each structure is given as a SMILES string.

Chain of Human recombinant MAO-A (P21397 whole entry): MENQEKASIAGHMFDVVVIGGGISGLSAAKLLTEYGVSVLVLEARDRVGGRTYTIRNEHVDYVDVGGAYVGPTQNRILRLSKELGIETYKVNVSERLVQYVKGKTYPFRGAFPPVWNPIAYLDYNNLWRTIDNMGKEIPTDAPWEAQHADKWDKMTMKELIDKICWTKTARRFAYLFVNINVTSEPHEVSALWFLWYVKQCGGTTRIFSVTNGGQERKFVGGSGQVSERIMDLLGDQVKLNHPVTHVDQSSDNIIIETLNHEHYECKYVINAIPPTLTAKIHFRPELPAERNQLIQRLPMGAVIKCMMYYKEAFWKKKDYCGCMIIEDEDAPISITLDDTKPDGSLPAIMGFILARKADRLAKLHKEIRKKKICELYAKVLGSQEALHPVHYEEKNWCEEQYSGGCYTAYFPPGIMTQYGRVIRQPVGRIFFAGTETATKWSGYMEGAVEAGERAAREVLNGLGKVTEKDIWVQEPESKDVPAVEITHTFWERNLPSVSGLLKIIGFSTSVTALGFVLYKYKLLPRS
Chain of Human recombinant MAO-B (P27338 whole entry): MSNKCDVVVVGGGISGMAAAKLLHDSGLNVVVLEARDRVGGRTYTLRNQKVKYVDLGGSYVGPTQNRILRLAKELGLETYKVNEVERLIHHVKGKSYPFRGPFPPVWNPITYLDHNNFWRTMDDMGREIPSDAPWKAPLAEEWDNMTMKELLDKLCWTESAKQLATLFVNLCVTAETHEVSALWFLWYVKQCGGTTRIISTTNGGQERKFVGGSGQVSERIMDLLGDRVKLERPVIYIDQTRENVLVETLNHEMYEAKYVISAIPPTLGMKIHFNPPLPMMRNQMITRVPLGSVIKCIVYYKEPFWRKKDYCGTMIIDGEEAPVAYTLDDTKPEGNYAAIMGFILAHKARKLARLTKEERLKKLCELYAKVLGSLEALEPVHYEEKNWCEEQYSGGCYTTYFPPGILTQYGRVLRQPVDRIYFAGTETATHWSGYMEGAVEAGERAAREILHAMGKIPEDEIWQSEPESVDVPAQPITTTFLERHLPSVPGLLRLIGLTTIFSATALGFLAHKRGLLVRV

The first test concerns the target Human recombinant MAO-B (Homo sapiens (Human), UniProt P27338). Put plainly: MAO-B enzymatic assay (fluorometric, kynuramine). As to conditions: human recombinant MAO-B expressed in insect cells, 50 μm kynuramine, pH 7.4, 37° C.; values given as ranges; read-out: MAO-B (pEC50) (converted). Format: biochemical. How it is done:
(§1) The MAO enzymatic assay was performed according to the fluorometric method described by Matsumoto and colleagues (Matsumoto et al., Clin. Biochem. 1985, 18, 126-129) with the following modifications. Human recombinant MAO-A and MAO-B expressed in insect cells were used. For both assays, test compound and/or vehicle were preincubated with purified enzyme in phosphate buffer pH 7.4 for 15 minutes at 37° C. The reaction was initiated by addition of […] kynuramine. Following a 60 minute incubation period, the reaction was terminated by the addition of 6 N NaOH. The amount of 4-hydroxyquinoline that formed was determined by spectrofluorimetrically at 325 nm/465 nm.
(§2) Results were converted to percent inhibition, and the EC50 (M) for each reaction was determined using the XLfit program from IDBS (ID Business Solutions Ltd., 2 Occam Court, Surrey Research Park, Guildford, Surrey, GU2 7QB UK). The EC50 represents the concentration of a compound where 50% of its maximal effect is observed. The pEC50 is defined as the negative logarithm of the EC50; a higher pEC50 value therefore corresponds to higher potency in the assay.
Representative compounds of the invention were evaluated in the MAO-B enzymatic assay. Typically, the compounds of the invention show MAO-B inhibitory properties at a concentration of 0.1 to 10 μM, typically at 5-100%.
Consider `CCOC(=O)Cc1cnc2cc(OCc3cccc(Cl)c3)ccc2c1` [Example 51, Ethyl 2-(7-((3-chlorobenzyl)oxy)quinolin-3-yl)acetate], for which the EC50 was 100 to 1000 nM.

The target of a further test is Human recombinant MAO-A (Homo sapiens (Human), UniProt P21397). Put plainly: MAO enzymatic assay, MAO-B selectivity (MAO-A/MAO-B). Format: biochemical. Conditions: selectivity for MAO-B over MAO-A; values given as ranges. How it is done:
as §1, §2
Take `CCOC(=O)c1cnc2cc(OCc3cccc(C(F)(F)F)c3)ccc2c1` [Example 5, Ethyl 7-((3-(trifluoromethyl)benzyl)oxy)quinoline-3-carboxylate]: the MAO-A/MAO-B is on record as >100-200.
Same read-out and setting: in the case of `CCOC(=O)c1cnc2cc(OCc3cc(F)cc(C(F)(F)F)c3)ccc2c1` [Example 13, Ethyl 7-((3-fluoro-5-(trifluoromethyl)benzyl)oxy)quinoline-3-carboxylate] it was >100-200; in that of `CCOC(=O)c1cnc2cc(OCc3cccc(F)c3)ccc2c1` [Example 4, Ethyl 7[(3-fluorophenyl)methoxy]quinoline-3-carboxylate], 1-10.
For `CCOC(=O)c1cnc2cc(OCc3ccc(F)c(Cl)c3)ccc2c1` [Example 17, Ethyl 7-((3-chloro-4-fluorobenzyl)oxy)quinoline-3-carboxylate], the MAO-A/MAO-B is reported as >100-200.
Same read-out and setting: next, `CCOC(=O)c1cnc2cc(OCc3ccc(OC)cc3)ccc2c1` [Example 10, Ethyl 7-((4-methoxybenzyl)oxy)quinoline-3-carboxylate]: >10-100; `CCOC(=O)c1cnc2cc(OCc3cccc(C)c3)ccc2c1` [Example 7, Ethyl 7-((3-methylbenzyl)oxy)quinoline-3-carboxylate]: >100-200; `CCOC(=O)c1cnc2cc(OCc3cc(F)cc(F)c3)ccc2c1` [Example 15, Ethyl 7-((3,5-difluorobenzyl)oxy)quinoline-3-carboxylate]: over 200.
Turning to `CCOC(=O)c1cnc2cc(OCCc3cccc(F)c3)ccc2c1` [Example 24, Ethyl 7-(3-fluorophenethoxy)quinoline-3-carboxylate], the MAO-A/MAO-B was >10-100.
Same read-out and setting: next, `CCOC(=O)c1cnc2cc(OCc3ccc(Cl)cc3)ccc2c1` [Example 1, Ethyl 7-[(4-chlorophenyl)methoxy]quinoline-3-carboxylate]: >10-100; `CCOC(=O)c1cnc2cc(OCc3ccc(F)cc3)ccc2c1` [Example 2, Ethyl 7-[(4-fluorophenyl)methoxy]quinoline-3-carboxylate]: >100-200.
Take `CCOC(=O)c1cnc2cc(OCc3cc(F)c(F)c(F)c3)ccc2c1` [Example 16, Ethyl 7-((3,4,5-trifluorobenzyl)oxy)quinoline-3-carboxylate]: the MAO-A/MAO-B is listed as over 200.
Consider `CCOC(=O)c1cnc2cc(OCc3ccc(F)c(C(F)(F)F)c3)ccc2c1` [Example 12, Ethyl 7-((4-fluoro-3-(trifluoromethyl)benzyl)oxy)quinoline-3-carboxylate], for which the MAO-A/MAO-B is recorded as over 200.
The same measure, in the same setting: in the case of `CC(C)(O)c1cnc2cc(OCc3ccc(F)cc3)ccc2c1` [Example 27, 2-(7-((4-Fluorobenzyl)oxy)quinolin-3-yl)propan-2-ol] it was over 200; in that of `CCOC(=O)c1cnc2cc(OCc3ccc(C(F)(F)F)cc3)ccc2c1` [Example 6, Ethyl 7-((4-(trifluoromethyl)benzyl)oxy)quinoline-3-carboxylate], >10-100; in that of `CCOC(=O)c1cnc2cc(OCc3cccc(Cl)c3)ccc2c1` [Example 3, Ethyl 7-[(3-chlorophenyl)methoxy]quinoline-3-carboxylate], >10-100.
On the same count and under the same terms, in the case of `CCOC(=O)c1cnc2cc(OCc3ccc([N+](=O)[O-])cc3)ccc2c1` [Example 11, Ethyl 7-((4-nitrobenzyl)oxy)quinoline-3-carboxylate] it was 1-10; in that of `CCOC(=O)c1cnc2cc(OCc3cccc(OC)c3)ccc2c1` [Example 9, Ethyl 7-((3-methoxybenzyl)oxy)quinoline-3-carboxylate], >100-200; in that of `CCOC(=O)c1cnc2cc(OCc3cccc([N+](=O)[O-])c3)ccc2c1` [Example 18, Ethyl 7-((3-nitrobenzyl)oxy)quinoline-3-carboxylate], >10-100.
Consider `CCOC(=O)c1cnc2cc(OCCc3cccc(Cl)c3)ccc2c1` [Example 25, Ethyl 7-(3-chlorophenethoxy)quinoline-3-carboxylate], for which the MAO-A/MAO-B was >10-100.
As to `CCOC(=O)c1cnc2cc(OCc3ccc(C)cc3)ccc2c1` [Example 8, Ethyl 7-((4-methylbenzyl)oxy)quinoline-3-carboxylate], the MAO-A/MAO-B is >10-100.
On the same count and under the same terms, next, `CCOC(=O)c1cnc2cc(OCc3ccc(F)c(F)c3)ccc2c1` [Example 14, Ethyl 7-((3,4-difluorobenzyl)oxy)quinoline-3-carboxylate]: over 200.
